In patent publication US20220226265A1, “METHODS OF CONTROLLING MYOCARDIAL BLOOD FLOW” (UNIVERSITY OF LOUISVILLE RESEARCH FOUNDATION, INC., priority 2021, published 2022):

Legend:
[1] = system: coronary arterial myocytes; experiment: Perforated whole cell patch clamp of outward K+ current; format: cell-based, mouse
Method: In situ proximity ligation: Arterial myocytes were isolated from coronary and mesenteric arteries using enzymatic digestion procedures, similar to those described previously. Briefly, arteries were incubated in digestion buffer containing (in mM): 140 NaCl, 5 KCl, 2 MgCl2, 10 HEPES, 10 glucose, pH 7.4 at 37° C. for 1 min. […]
Patch clamp electrophysiology: Arterial myocytes were isolated from coronary arteries as described above. […] Total outward K^+ currents (IK) were recorded from coronary arterial myocytes using the perforated whole cell configuration of the patch clamp technique in voltage clamp mode using an Axopatch 200B patch clamp amplifier (Axon Instruments). […] K^+ currents were recorded from each cell in the absence and presence of L-lactate (10 mM) in bath solution with and without psora-4 (500 nM). […] Patch clamp data were analyzed suing Clampfit 9 software (Axon Instruments). IK is expressed as peak currents reached during the period of depolarization normalized by cell capacitance and expressed as pA/pF.

[2] = system: isolated coronary arteries; experiment: L-lactate-induced vasodilation of preconstricted isolated coronary arteries; design: species or system mouse
Method: Arterial diameter measurements: Primary and secondary branches of the left anterior descending coronary arteries and third and fourth order branches of mesenteric arteries and were dissected and kept in ice-cold isolation buffer consisting of (in mM): 134 NaCl, 6 KCl, 1 MgCl2, 2 CaCl2, 10 HEPES, 7 D-glucose, pH 7.4. Isolated arteries were used for arterial diameter measurements within 8 h after dissection. Isolated arteries were cleaned of connective tissue and cannulated on glass micropipettes mounted in a linear alignment single vessel myograph chamber (Living Systems Instrumentation, St. Albans, Vt., USA). For some experiments, the vascular endothelium was functionally ablated by passage of air through the lumen (˜30 s) during the cannulation procedure. After cannulation, the chamber was placed on an inverted microscope and arteries were equilibrated at 37° C. and intravascular pressure of 20 mmHg, maintained with a pressure servo control unit (Living Systems Instrumentation, St. Albans, Vt., USA) under continuous perfusion (3-5 ml·min^−1) of physiological saline solution (PSS) consisting of (in mM): 119 NaCl, 4.7 KCl, 1.2 KH2PO4, 1.2 MgCl2, 7 D-glucose, 24 NaHCO3, 2 CaCl2, maintained at pH 7.35-7.45 via aeration with gas mixture containing 5% CO2 and 20% O2 (balanced with N2). Following an equilibration period (45-60 min), lumenal diameter was continuously monitored and recorded with a charge coupled device (CCD) camera and edge detection software (IonOptix, Milton, Mass., USA). […] Bath O2 levels were measured using a dissolved oxygen meter (World Precision Instruments, Sarasota, Fla., USA). At the end of each experiment, the maximum passive diameter was measured in the presence of Ca^2+-free PSS containing the L-type Ca^2+ channel inhibitor nifedipine (1 μM) and adenylyl cyclase activator forskolin (0.5 μM), as described previously. Vasoconstriction is expressed as a decrease in arterial diameter relative to the maximum passive diameter at a given intravascular pressure. […]

[3] = system: isolated mesenteric arteries; experiment: Vasodilation of preconstricted isolated mesenteric arteries; design: species or system mouse
Method: Arterial diameter measurements: Primary and secondary branches of the left anterior descending coronary arteries and third and fourth order branches of mesenteric arteries and were dissected and kept in ice-cold isolation buffer consisting of (in mM): 134 NaCl, 6 KCl, 1 MgCl2, 2 CaCl2, 10 HEPES, 7 D-glucose, pH 7.4. Isolated arteries were used for arterial diameter measurements within 8 h after dissection. Isolated arteries were cleaned of connective tissue and cannulated on glass micropipettes mounted in a linear alignment single vessel myograph chamber (Living Systems Instrumentation, St. Albans, Vt., USA). For some experiments, the vascular endothelium was functionally ablated by passage of air through the lumen (˜30 s) during the cannulation procedure. After cannulation, the chamber was placed on an inverted microscope and arteries were equilibrated at 37° C. and intravascular pressure of 20 mmHg, maintained with a pressure servo control unit (Living Systems Instrumentation, St. Albans, Vt., USA) under continuous perfusion (3-5 ml·min^−1) of physiological saline solution (PSS) consisting of (in mM): 119 NaCl, 4.7 KCl, 1.2 KH2PO4, 1.2 MgCl2, 7 D-glucose, 24 NaHCO3, 2 CaCl2, maintained at pH 7.35-7.45 via aeration with gas mixture containing 5% CO2 and 20% O2 (balanced with N2). Following an equilibration period (45-60 min), lumenal diameter was continuously monitored and recorded with a charge coupled device (CCD) camera and edge detection software (IonOptix, Milton, Mass., USA). Experiments were performed to examine effects of step-wise increases in intravascular pressure (20-100 mmHg), elevated [K^+]o (via isosmotic replacement of KCl for NaCl), the synthetic thromboxane A2 analogue U46619 (Tocris Bioscience, Minneapolis, Minn., USA), adenosine (Sigma Aldrich, St. Louis, Mo., USA), or L-lactate (Sigma Aldrich, St. Louis, Mo., USA). For some experiments, hypoxic bath conditions were generated by perfusion of 1 mM Na2S2O4-containing PSS aerated with 5% CO2 (balance N2; 0% O2). Bath O2 levels were measured using a dissolved oxygen meter (World Precision Instruments, Sarasota, Fla., USA). At the end of each experiment, the maximum passive diameter was measured in the presence of Ca^2+-free PSS containing the L-type Ca^2+ channel inhibitor nifedipine (1 μM) and adenylyl cyclase activator forskolin (0.5 μM), as described previously. Vasoconstriction is expressed as a decrease in arterial diameter relative to the maximum passive diameter at a given intravascular pressure. Changes in diameter (e.g., vasodilation) are normalized to differences from baseline and maximum passive diameters for each experiment.

[4] = system: isolated coronary arteries; experiment: Hypoxia-induced vasodilation of isolated pressurized coronary arteries; design: species or system mouse; settings: psora-4 500 nM; WT coronary arteries, 60 mmHg, pre-constricted with 100 nM U46619
Method: Arterial diameter measurements: Primary and secondary branches of the left anterior descending coronary arteries and third and fourth order branches of mesenteric arteries and were dissected and kept in ice-cold isolation buffer consisting of (in mM): 134 NaCl, 6 KCl, 1 MgCl2, 2 CaCl2, 10 HEPES, 7 D-glucose, pH 7.4. Isolated arteries were used for arterial diameter measurements within 8 h after dissection. Isolated arteries were cleaned of connective tissue and cannulated on glass micropipettes mounted in a linear alignment single vessel myograph chamber (Living Systems Instrumentation, St. Albans, Vt., USA). […] Following an equilibration period (45-60 min), lumenal diameter was continuously monitored and recorded with a charge coupled device (CCD) camera and edge detection software (IonOptix, Milton, Mass., USA). […] Bath O2 levels were measured using a dissolved oxygen meter (World Precision Instruments, Sarasota, Fla., USA). At the end of each experiment, the maximum passive diameter was measured in the presence of Ca^2+-free PSS containing the L-type Ca^2+ channel inhibitor nifedipine (1 μM) and adenylyl cyclase activator forskolin (0.5 μM), as described previously. Vasoconstriction is expressed as a decrease in arterial diameter relative to the maximum passive diameter at a given intravascular pressure. […]

SMILES: C[C@H](O)C(=O)O [L-lactate]
- outward K+ current density ([1]; 10 mM L-lactate in the bath, 1-3 min): significant increase
- vasodilation in response to external L-lactate ([2]; L-lactate 5-20 mM, WT coronary arteries pre-constricted with 100 nM U46619): step-wise vasodilation
- L-lactate-induced vasodilation ([2]; coronary arteries isolated from Kvβ2−/− mice): abolished
- dilation on application of L-lactate ([3]; L-lactate 5-20 mM, WT mesenteric arteries preconstricted with 100 nM U46619): robust and reversible dilation
- L-lactate-mediated vasodilation ([3]; endothelium-denuded mesenteric arteries, 10 mM L-lactate): insensitive to endothelial denudation
- L-lactate-mediated vasodilation ([3]; mesenteric arteries constricted with elevated external K+ (60 mM) rather than U46619): abolished
- dilatory response to L-lactate ([3]; mesenteric arteries from Kvβ1.1−/− mice vs corresponding WT): not significantly different
- vasodilation in response to extracellular L-lactate ([3]; mesenteric arteries from SM22α-rtTA:TRE-Kvβ1 vs single transgenic control mice): significantly blunted vasodilation
- vasodilation in response to L-lactate ([3]; mesenteric arteries with loss of Kvβ2): eliminated

SMILES: Nc1ncnc2c1ncn2[C@@H]1O[C@H](CO)[C@@H](O)[C@H]1O [adenosine]
- vasodilation induced by adenosine ([3]; adenosine 1-100 μM, Kvβ1.1−/− or Kvβ2−/− arteries vs corresponding WT): not significantly different

SMILES: O=c1ccc2c(OCCCCc3ccccc3)c3ccoc3cc2o1 [psora-4]
- attenuation of hypoxia-induced vasodilation [4]: ~58%
- effect on L-lactate-induced increase in outward K+ current density ([1]; psora-4 500 nM, 10 mM L-lactate): abolished
- effect on L-lactate-induced vasodilation ([2]; psora-4 500 nM, L-lactate 5-20 mM, WT coronary arteries): abolished
- effect on vasodilation in response to L-lactate ([3]; psora-4 500 nM, WT mesenteric arteries): eliminated
